Laboratory results: US11613527B2, “Enzyme inhibitors” (KalVista Pharmaceuticals Limited, priority 2019, dated 2023)
pIC50: −log10 of the molar value. ≈ marks a conversion by molar mass, not a printed value.

Tests used:
Human plasma kallikrein = Human plasma kallikrein (Homo sapiens (Human), UniProt P03952); experiment: Determination of the IC50 for plasma kallikrein (fluorogenic substrate H-DPro-Phe-Arg-AFC); assay type: biochemical; details: class symbols A-D, read-out: IC50 (human PKal)
Outline: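 Enzyme from a commercial source was incubated at 25° C. with H-DPro-Phe-Arg-AFC substrate and a range of test compound concentrations. Residual activity was taken as the initial reaction rate, followed by absorbance change at 410 nm, and IC50 values were derived from it.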

Human FXIa = Human FXIa (Homo sapiens (Human), UniProt P03951); experiment: Determination of the % inhibition for FXIa (fluorogenic substrate Z-Gly-Pro-Arg-AFC; 40 μM or IC50); assay type: biochemical
Outline: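 Human FXIa incubated at 25 °C with fluorogenic substrate Z-Gly-Pro-Arg-AFC and test compound at 40 μM for % inhibition, or a concentration series for IC50. Residual activity taken as initial rate from absorbance change at 410 nm.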

Human KLK1 = Human KLK1 (Homo sapiens (Human), UniProt P06870); experiment: Determination of the IC50 for KLK1 (fluorogenic substrate H-DVal-Leu-Arg-AFC); assay type: biochemical
Outline: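 Human KLK1 incubated at 25° C. with fluorogenic substrate H-DVal-Leu-Arg-AFC and a range of test compound concentrations. Residual activity taken as initial reaction rate from absorbance change at 410 nm; IC50 derived from these rates.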

[1] = Solubility after 24 hrs in Fasted State Simulated Intestinal Fluid (FaSSIF); assay type: physicochemical; details: 24 hrs at 37° C., nominal concentration 1 mg/mL (as free base); for solubility at 24 h: Fasted State Simulated Intestinal Fluid (FaSSIF), thermodynamic from solid
Description: Selected compounds were further screened for solubility in Fasted State Simulated Intestinal Fluid (FaSSIF).
Approximately 1 mg of test compound is accurately weighed into a 2 mL vial. Volumes of the FaSSIF solution (pre-heated to 37° C.) were added to a vial to give a nominal concentration of 1 mg/mL (as free base). The FaSSIF solution was prepared on the day of use. The samples were vortexed before being placed in a Titramax 1000 shaker for 24 hrs at 37° C. and approximately 500 rpm. The samples were transferred to eppendorf tubes and centrifuged at 15,000 g (r.c.f.) for 10 min at 37° C. and analysed for concentration of test compound by LCMS.

Sequence of Human FXIa (P03951 388-625): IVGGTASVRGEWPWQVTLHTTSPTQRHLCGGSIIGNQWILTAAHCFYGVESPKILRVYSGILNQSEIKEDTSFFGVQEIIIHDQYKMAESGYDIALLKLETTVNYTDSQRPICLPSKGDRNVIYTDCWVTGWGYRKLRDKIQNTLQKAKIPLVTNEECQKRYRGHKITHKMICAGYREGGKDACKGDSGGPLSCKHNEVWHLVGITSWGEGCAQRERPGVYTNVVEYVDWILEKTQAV
Sequence of Human FXIa (P03951 19-387 partner): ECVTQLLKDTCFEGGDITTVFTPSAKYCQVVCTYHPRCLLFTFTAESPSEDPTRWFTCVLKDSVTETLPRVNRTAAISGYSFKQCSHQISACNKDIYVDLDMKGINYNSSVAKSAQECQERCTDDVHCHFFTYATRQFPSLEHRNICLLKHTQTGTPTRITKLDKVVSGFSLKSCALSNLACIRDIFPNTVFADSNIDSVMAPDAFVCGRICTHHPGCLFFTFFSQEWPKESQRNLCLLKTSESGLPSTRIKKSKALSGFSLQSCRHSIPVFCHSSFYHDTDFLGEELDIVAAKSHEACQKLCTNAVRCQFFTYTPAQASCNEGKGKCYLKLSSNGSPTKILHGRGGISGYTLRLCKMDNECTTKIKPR
Sequence of Human plasma kallikrein (P03952 391-638): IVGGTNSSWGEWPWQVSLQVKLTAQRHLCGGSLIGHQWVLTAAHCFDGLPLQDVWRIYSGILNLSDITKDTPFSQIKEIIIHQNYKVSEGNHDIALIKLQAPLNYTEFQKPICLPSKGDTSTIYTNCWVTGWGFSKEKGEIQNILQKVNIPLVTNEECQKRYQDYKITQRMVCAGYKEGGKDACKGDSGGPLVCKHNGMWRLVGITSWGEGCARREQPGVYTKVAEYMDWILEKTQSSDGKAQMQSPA
Sequence of Human plasma kallikrein (P03952 20-390 partner): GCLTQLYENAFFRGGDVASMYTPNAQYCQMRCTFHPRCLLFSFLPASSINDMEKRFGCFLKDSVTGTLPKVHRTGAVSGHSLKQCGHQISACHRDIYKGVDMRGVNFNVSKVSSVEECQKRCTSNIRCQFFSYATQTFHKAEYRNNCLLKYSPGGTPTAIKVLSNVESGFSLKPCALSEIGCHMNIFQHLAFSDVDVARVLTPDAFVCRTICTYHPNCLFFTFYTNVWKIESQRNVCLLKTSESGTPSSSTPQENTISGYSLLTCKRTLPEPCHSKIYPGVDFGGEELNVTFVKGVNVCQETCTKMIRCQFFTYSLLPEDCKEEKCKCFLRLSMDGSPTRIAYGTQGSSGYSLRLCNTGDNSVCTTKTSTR
Sequence of Human KLK1 (P06870 25-262): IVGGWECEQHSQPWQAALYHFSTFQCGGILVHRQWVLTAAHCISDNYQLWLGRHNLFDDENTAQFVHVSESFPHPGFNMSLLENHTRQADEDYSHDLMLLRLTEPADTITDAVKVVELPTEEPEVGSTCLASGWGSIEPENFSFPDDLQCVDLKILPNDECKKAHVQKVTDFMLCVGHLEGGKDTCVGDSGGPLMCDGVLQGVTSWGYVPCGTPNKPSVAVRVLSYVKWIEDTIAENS

Row | pIC50 (Human plasma kallikrein) | pIC50 (Human FXIa) | pIC50 (Human KLK1) | solubility at 24 h [1] [µg/mL] | FASSIF Solubility 24 hrs [1] [µg/mL] | Compound
1 | > 8.00 | < 4.40 | < 4.40 | 840 (≈ 1360 µM) |  | COCc1nn(Cc2ccc3c(c2)CCN(C(C)C)C3)cc1C(=O)NCc1c(-n2cnc(C(F)(F)F)n2)ccc(OC)c1F [Example 45, N-({2-fluoro-3-methoxy-6-[3-(trifluoromethyl)-1,2,4-triazol-1-yl]phenyl}methyl)-1-[(2-isopropyl-3,4-dihydro-1H-isoquinolin-6-yl)methyl]-3-(methoxymethyl)pyrazole-4-carboxamide]
2 | 7.52 to 8.00 |  |  | 560 (≈ 995 µM) |  | COCc1nn(Cc2cnc3c(c2)CN(C(C)C)CC3)cc1C(=O)NCc1c(-n2cc(C)nn2)ccc(OC)c1F [Example 132, N-{[2-fluoro-3-methoxy-6-(4-methyl-1H-1,2,3-triazol-1-yl)phenyl]methyl}-3-(methoxymethyl)-1-{[6-(propan-2-yl)-5,6,7,8-tetrahydro-1,6-naphthyridin-3-yl]methyl}-1H-pyrazole-4-carboxamide]
3 | > 8.00 | < 4.40 | < 4.40 | 950 (≈ 1880 µM) |  | COc1ccc(-n2cc(C)nn2)c(CNC(=O)c2cn(Cc3ccc4c(c3)CN(C(C)C)C4)nn2)c1F [Example 153, N-{[2-fluoro-3-methoxy-6-(4-methyl-1,2,3-triazol-1-yl)phenyl]methyl}-1-[(2-isopropyl-1,3-dihydroisoindol-5-yl)methyl]-1,2,3-triazole-4-carboxamide]
4 | > 8.00 | 4.47 | < 4.40 | 960 (≈ 1720 µM) |  | CCN1CCc2ccc(Cn3cc(C(=O)NCc4c(-n5ccc(C#N)n5)ccc(OC)c4F)c(COC)n3)cc2C1 [Example 27, N-{[6-(3-cyanopyrazol-1-yl)-2-fluoro-3-methoxyphenyl]methyl}-1-[(2-ethyl-3,4-dihydro-1H-isoquinolin-7-yl)methyl]-3-(methoxymethyl)pyrazole-4-carboxamide]
5 | 7.52 to 8.00 | < 4.40 | < 4.40 | 750 (≈ 1490 µM) |  | COc1ccc(-n2cc(C)nn2)c(CNC(=O)c2cn(Cc3ccc4c(c3)CN(C)CC4)c(C)n2)c1F [Example 151, N-{[2-fluoro-3-methoxy-6-(4-methyl-1,2,3-triazol-1-yl)phenyl]methyl}-2-methyl-1-[(2-methyl-3,4-dihydro-1H-isoquinolin-7-yl)methyl]imidazole-4-carboxamide]
6 | 6.00 to 7.00 | < 4.40 | < 4.40 | 50 (≈ 96 µM) |  | COCc1nn(Cc2ccc3c(c2)COCC3)cc1C(=O)NCc1c(-n2cc(C)nn2)ccc(OC)c1F [Example 133, 1-(3,4-dihydro-1H-2-benzopyran-7-ylmethyl)-N-{[2-fluoro-3-methoxy-6-(4-methyl-1,2,3-triazol-1-yl)phenyl]methyl}-3-(methoxymethyl)pyrazole-4-carboxamide]
7 | 7.00 to 7.52 | < 4.40 | < 4.40 | 510 (≈ 911 µM) |  | COCc1nn(Cc2ccc3c(c2)CCN(C2CC2)C3)cc1C(=O)NCc1c(-n2cc(C)nn2)ccc(OC)c1F [Example 35, 1-[(2-cyclopropyl-3,4-dihydro-1H-isoquinolin-6-yl)methyl]-N-{[2-fluoro-3-methoxy-6-(4-methyl-1,2,3-triazol-1-yl)phenyl]methyl}-3-(methoxymethyl)pyrazole-4-carboxamide]
8 | > 8.00 | 5.99 | < 4.40 | > 1000 |  | COCc1nn(Cc2ccc3c(c2)CN(C)CC3)cc1C(=O)NCc1c(-n2cnc(C)n2)ccc(OC)c1F [Example 4, N-{[2-fluoro-3-methoxy-6-(3-methyl-1,2,4-triazol-1-yl)phenyl]methyl}-3-(methoxymethyl)-1-[(2-methyl-3,4-dihydro-1H-isoquinolin-7-yl)methyl]pyrazole-4-carboxamide]
9 | > 8.00 | < 4.40 | < 4.40 | > 1000 |  | COCc1nn(Cc2ccc3c(c2)CCN(C)C3)cc1C(=O)NCc1c(-n2cc(C(F)F)nn2)ccc(OC)c1F [Example 34, N-({6-[4-(difluoromethyl)-1,2,3-triazol-1-yl]-2-fluoro-3-methoxyphenyl}methyl)-3-(methoxymethyl)-1-[(2-methyl-3,4-dihydro-1H-isoquinolin-6-yl)methyl]pyrazole-4-carboxamide]
10 | > 8.00 | < 4.40 | < 4.40 | 720 (≈ 1230 µM) |  | CCN1CCc2cc(Cn3cc(C(=O)NCc4c(-n5cnc(C(F)F)n5)ccc(OC)c4F)c(COC)n3)ccc2C1 [Example 50, N-({6-[3-(difluoromethyl)-1,2,4-triazol-1-yl]-2-fluoro-3-methoxyphenyl}methyl)-1-[(2-ethyl-3,4-dihydro-1H-isoquinolin-6-yl)methyl]-3-(methoxymethyl)pyrazole-4-carboxamide]
11 | > 8.00 |  | < 4.40 | 170 (≈ 325 µM) |  | COCc1nn(Cc2cnc(N3CCCC3)nc2)cc1C(=O)NCc1c(-n2cnnn2)ccc(OC)c1F [RC4, N-{[2-fluoro-3-methoxy-6-(1,2,3,4-tetrazol-1-yl)phenyl]methyl}-3-(methoxymethyl)-1-{[2-(pyrrolidin-1-yl)pyrimidin-5-yl]methyl}pyrazole-4-carboxamide, reference compound]
12 |  |  |  | 20 (≈ 38.3 µM) |  | COCc1nn(Cc2cnc(N3CCCC3)nc2)cc1C(=O)NCc1c(-n2ccnn2)ccc(OC)c1F [RC5, N-{[2-fluoro-3-methoxy-6-(1,2,3-triazol-1-yl)phenyl]methyl}-3-(methoxymethyl)-1-{[2-(pyrrolidin-1-yl)pyrimidin-5-yl]methyl}pyrazole-4-carboxamide, reference compound]
13 |  |  |  | 100 (≈ 187 µM) |  | COCc1nn(Cc2cnc(N3CCCC3)nc2)cc1C(=O)NCc1c(-n2cc(C)nn2)ccc(OC)c1F [RC6, N-{[2-fluoro-3-methoxy-6-(4-methyl-1,2,3-triazol-1-yl)phenyl]methyl}-3-(methoxymethyl)-1-{[2-(pyrrolidin-1-yl)pyrimidin-5-yl]methyl}pyrazole-4-carboxamide, reference compound]
14 | 6.00 to 7.00 |  |  | 40 (≈ 77.6 µM) |  | COCc1nn(Cc2ccc3ccncc3c2)cc1C(=O)NCc1c(-n2cc(C)nn2)ccc(OC)c1F [RC1, N-{[2-fluoro-3-methoxy-6-(4-methyl-1,2,3-triazol-1-yl)phenyl]methyl}-1-(isoquinolin-7-ylmethyl)-3-(methoxymethyl)pyrazole-4-carboxamide, reference compound]
15 |  |  |  |  | 960 | [2H]C([2H])([2H])N1CCc2ccc(Cn3cc(C(=O)NCc4c(-n5cc(C)nn5)ccc(OC)c4F)c(COC)n3)cc2C1 [Example 119, N-{[2-fluoro-3-methoxy-6-(4-methyl-1,2,3-triazol-1-yl)phenyl]methyl}-3-(methoxymethyl)-1-{[2-(^2H3)methyl-3,4-dihydro-1H-isoquinolin-7-yl]methyl}pyrazole-4-carboxamide]
16 | > 8.00 | < 5.40 | < 5.40 |  |  | COCc1nn(Cc2cc(F)c3c(c2)CCN(C)C3)cc1C(=O)NCc1c(-n2cc(C)nn2)ccc(OC)c1F [Example 116, 1-[(8-fluoro-2-methyl-3,4-dihydro-1H-isoquinolin-6-yl)methyl]-N-{[2-fluoro-3-methoxy-6-(4-methyl-1,2,3-triazol-1-yl)phenyl]methyl}-3-(methoxymethyl)pyrazole-4-carboxamide]
17 | > 8.00 | < 4.40 | < 4.40 |  |  | COCc1nn(Cc2ccc3c(c2)CCN(C)CC3)cc1C(=O)NCc1c(-n2cnc(C(F)(F)F)n2)ccc(OC)c1F [Example 158, N-({2-fluoro-3-methoxy-6-[3-(trifluoromethyl)-1,2,4-triazol-1-yl]phenyl}methyl)-3-(methoxymethyl)-1-[(3-methyl-1,2,4,5-tetrahydro-3-benzazepin-7-yl)methyl]pyrazole-4-carboxamide]
18 | 7.52 to 8.00 | < 4.40 | < 4.40 |  |  | COCc1nn(Cc2cc3n(n2)CCN(C)C3)cc1C(=O)NCc1c(-n2cc(C)nn2)ccc(OC)c1F [Example 70, N-{[2-fluoro-3-methoxy-6-(4-methyl-1,2,3-triazol-1-yl)phenyl]methyl}-3-(methoxymethyl)-1-({5-methyl-4H,6H,7H-pyrazolo[1,5-a]pyrazin-2-yl}methyl)pyrazole-4-carboxamide]
19 | 7.00 to 7.52 | 4.95 | < 4.40 |  |  | COCc1nn(Cc2ccc3c(c2)C(=O)N(C)CC3)cc1C(=O)NCc1c(-n2cc(C)nn2)ccc(OC)c1F [Example 73, N-{[2-Fluoro-3-methoxy-6-(4-methyl-1,2,3-triazol-1-yl)phenyl]methyl}-3-(methoxymethyl)-1-[(2-methyl-1-oxo-3,4-dihydroisoquinolin-7-yl)methyl]pyrazole-4-carboxamide]
